Experimental data: patent US11274100B2, “EP300/CREBBP inhibitor” (Daiichi Sankyo Company, Limited, priority 2017, dated 2022)

Tests used:
EP300 = EP300 (Homo sapiens, UniProt Q09472); assay: Histone acetyltransferase inhibitory activity against EP300 (Test Example 1); format: biochemical; settings: 50 ng/mL EP300, 2 μM Acetyl-CoA, 100 nM Histone H4(1-25)-GSGSK (Biotin), 28° C. for 1 hour
How it was run: (§1)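 Enzyme (50 ng/mL EP300 or 125 ng/mL CREBBP) incubated 1 h at 28° C with 2 μM acetyl-CoA, 100 nM biotinylated histone H4(1-25) peptide and 10 to 0.0006 μM compound in pH 8.0 Tris buffer with 330 nM trichostatin A, 1% DMSO. Reaction stopped with Lys-CoA; acetylation read by TR-FRET (Eu-anti pan-Ac/Sta-ULight) after overnight room-temperature incubation.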

TE-8 cells = assay: Antitumor activity in TE-8 cell subcutaneous transplant model (Test Example 5); format: in vivo, female BALB/c-nu/nu mice; settings: TE-8 subcutaneous transplant model, dose 6 mg/kg/day, test end day
Source text: [Test Example 5] Evaluation of Antitumor Activity in TE-8 Cell Subcutaneous Transplant Model
TE-8 cells were transplanted at a rate of 1×10^7 cells/head subcutaneously into a right abdominal site of each of female BALB/c-nu/nu mice, and 9 days after (Example 73) or 10 days after (Examples 35 and 84), the mice were grouped into groups each consisting of 5 mice based on an estimated tumor volume (longer diameter×shorter diameter×shorter diameter/2) and the weight. The TE-8 cells were purchased from Riken Cell Bank. The female BALB/c-nu/nu mice were purchased from Charles River Laboratories Japan, Inc.
(§2) From the day of grouping, the compound of Example 73 at a dose set to 2 mg/kg/day was orally administered in accordance with a schedule of twice a day continuously for 9 days (BID x 9). The estimated tumor volume of each individual was measured from the day of grouping until 18 days after the transplantation (test end day).
as §2, with “Besides, from” for “From”, “[…]” for “73”, “11” for “9”, “11).” for “9).”, “21” for “18”
(§3) The antitumor activity in LK2 cell subcutaneous transplant model of Test Example 4, the antitumor activity in TE-8 cell subcutaneous transplant model of Test Example 5, the antitumor activity in KARPASS-422 cell subcutaneous transplant model of Test Example 6, the antitumor activity in NMC10-15 cell subcutaneous transplant model of Test Example 7, and the antitumor activity in VCaP cell subcutaneous transplant model of Test Example 8 were respectively calculated on the end dates of the tests in accordance with the following equation: Tumor Growth Inhibition Rate %=(1−TVCt/TVCc)×100 TVC=(individual tumor volume on test end day)−(individual tumor volume on grouping day)
TVCt: average of TVC values of administration group
TVCc: average of TVC values of non-administration group

LK2 cells = assay: Antitumor activity in LK2 cell subcutaneous transplant model (Test Example 4); format: in vivo, female BALB/c-nu/nu mice; settings: dose 12.5 mg/kg/day, test end day
Source text: [Test Example 4] Evaluation of Antitumor Activity in LK2 Cell Subcutaneous Transplant Model
LK2 cells were transplanted at a rate of 2×10^6 cells/head subcutaneously into a right abdominal site of each of female BALB/c-nu/nu mice, and 7 days after, the mice were grouped into groups each consisting of 5 mice based on an estimated tumor volume (longer diameter×shorter diameter×shorter diameter/2) and the weight. The LK2 cells were purchased from Human Science Research Resources Bank. […] The estimated tumor volume of each individual was measured from the day of grouping until 18 days after the transplantation (test end day).
as §3
TVCt: average of TVC values of administration group […]

CREBBP = CREBBP (Homo sapiens, UniProt Q92793); assay: Histone acetyltransferase inhibitory activity against CREBBP (Test Example 1); format: biochemical; settings: 125 ng/mL CREBBP, 2 μM Acetyl-CoA, 100 nM Histone H4(1-25)-GSGSK (Biotin), 28° C. for 1 hour
Sequence of CREBBP (Q92793 whole entry): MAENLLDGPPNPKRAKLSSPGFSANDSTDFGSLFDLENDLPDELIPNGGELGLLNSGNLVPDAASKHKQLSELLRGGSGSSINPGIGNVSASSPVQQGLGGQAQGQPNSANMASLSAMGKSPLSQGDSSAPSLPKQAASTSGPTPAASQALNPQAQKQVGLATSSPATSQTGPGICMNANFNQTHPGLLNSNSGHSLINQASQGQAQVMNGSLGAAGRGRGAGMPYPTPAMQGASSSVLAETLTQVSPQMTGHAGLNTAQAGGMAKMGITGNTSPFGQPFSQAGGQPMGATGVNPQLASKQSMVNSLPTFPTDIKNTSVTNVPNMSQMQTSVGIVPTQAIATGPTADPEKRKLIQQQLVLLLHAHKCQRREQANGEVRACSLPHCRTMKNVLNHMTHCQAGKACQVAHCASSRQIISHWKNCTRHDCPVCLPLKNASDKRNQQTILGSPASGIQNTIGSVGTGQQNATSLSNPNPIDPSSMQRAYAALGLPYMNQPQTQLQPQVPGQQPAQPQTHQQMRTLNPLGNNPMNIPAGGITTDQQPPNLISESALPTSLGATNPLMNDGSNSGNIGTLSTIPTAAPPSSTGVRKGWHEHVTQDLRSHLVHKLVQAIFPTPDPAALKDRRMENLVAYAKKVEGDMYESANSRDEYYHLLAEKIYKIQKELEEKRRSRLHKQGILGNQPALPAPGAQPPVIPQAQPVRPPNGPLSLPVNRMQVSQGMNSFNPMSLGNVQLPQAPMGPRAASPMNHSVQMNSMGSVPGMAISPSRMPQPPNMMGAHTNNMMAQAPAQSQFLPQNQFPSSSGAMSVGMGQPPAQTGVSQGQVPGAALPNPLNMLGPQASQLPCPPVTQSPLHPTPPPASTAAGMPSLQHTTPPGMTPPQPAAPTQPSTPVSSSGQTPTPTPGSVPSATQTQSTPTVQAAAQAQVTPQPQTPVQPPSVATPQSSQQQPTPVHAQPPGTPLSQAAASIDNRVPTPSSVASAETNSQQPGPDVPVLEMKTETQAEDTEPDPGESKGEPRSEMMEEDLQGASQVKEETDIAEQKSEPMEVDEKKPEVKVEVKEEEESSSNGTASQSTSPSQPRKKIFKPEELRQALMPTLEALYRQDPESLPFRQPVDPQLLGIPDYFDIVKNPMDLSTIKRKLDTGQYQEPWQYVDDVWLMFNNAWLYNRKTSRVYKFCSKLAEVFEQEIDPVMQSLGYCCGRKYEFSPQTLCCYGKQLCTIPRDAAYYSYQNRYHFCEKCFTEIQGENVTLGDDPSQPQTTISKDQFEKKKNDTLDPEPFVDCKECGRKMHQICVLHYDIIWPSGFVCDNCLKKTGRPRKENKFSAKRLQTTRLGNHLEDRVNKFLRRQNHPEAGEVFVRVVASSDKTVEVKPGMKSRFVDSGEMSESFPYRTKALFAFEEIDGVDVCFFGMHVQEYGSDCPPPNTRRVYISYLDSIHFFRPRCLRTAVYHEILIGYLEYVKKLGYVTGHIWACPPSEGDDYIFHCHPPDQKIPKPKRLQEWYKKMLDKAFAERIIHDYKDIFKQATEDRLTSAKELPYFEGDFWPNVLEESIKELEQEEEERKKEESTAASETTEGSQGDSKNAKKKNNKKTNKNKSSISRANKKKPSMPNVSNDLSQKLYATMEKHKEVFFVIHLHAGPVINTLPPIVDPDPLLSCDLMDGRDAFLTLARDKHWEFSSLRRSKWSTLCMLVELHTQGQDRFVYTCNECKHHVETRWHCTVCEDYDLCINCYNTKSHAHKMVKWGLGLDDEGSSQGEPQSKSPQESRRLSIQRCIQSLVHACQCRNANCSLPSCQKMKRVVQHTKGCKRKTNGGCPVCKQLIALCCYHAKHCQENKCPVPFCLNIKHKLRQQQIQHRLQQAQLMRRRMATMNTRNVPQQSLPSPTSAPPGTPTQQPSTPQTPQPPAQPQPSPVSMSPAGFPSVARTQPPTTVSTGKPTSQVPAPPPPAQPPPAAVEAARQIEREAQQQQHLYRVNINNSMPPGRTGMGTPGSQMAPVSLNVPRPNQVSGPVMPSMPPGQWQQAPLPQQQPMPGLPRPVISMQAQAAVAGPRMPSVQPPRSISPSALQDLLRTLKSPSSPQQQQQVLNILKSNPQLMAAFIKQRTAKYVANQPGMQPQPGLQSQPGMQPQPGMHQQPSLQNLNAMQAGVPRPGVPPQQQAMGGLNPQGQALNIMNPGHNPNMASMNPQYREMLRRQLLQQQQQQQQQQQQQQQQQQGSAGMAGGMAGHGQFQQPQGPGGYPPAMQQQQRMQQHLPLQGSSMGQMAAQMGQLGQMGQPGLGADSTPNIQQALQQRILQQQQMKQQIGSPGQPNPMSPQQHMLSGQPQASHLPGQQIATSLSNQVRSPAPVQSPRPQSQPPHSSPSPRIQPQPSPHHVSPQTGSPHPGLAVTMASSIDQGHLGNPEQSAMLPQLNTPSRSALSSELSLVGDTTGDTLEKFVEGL
How it was run: as §1

KARPAS-422 cells = assay: Antitumor activity in KARPAS-422 cell subcutaneous transplant model (Test Example 6); format: in vivo, female SCID mice; settings: KARPAS422 subcutaneous transplant model, dose 6 mg/kg/day, test end day
Source text: [Test Example 6] Evaluation of Antitumor Activity in KARPAS-422 Cell Subcutaneous Transplant Model
KARPAS-422 cells of human diffuse large B-cell lymphoma were transplanted at a rate of 2×10^7 cells/head subcutaneously into a right abdominal site of each of female SCID mice, and 10 days after, the mice were grouped into groups each consisting of 5 mice based on an estimated tumor volume (longer diameter×shorter diameter×shorter diameter/2) and the weight. The KARPAS-422 cells were purchased from Deutsche Sammlung von Mikroorganismen und Zelkulturen GmbH. […] The estimated tumor volume of each individual was measured from the day of grouping until 28 days after the transplantation (test end day).
as §3, with “grouping day) […]” for “grouping day)”

Sequence of EP300 (Q09472 whole entry): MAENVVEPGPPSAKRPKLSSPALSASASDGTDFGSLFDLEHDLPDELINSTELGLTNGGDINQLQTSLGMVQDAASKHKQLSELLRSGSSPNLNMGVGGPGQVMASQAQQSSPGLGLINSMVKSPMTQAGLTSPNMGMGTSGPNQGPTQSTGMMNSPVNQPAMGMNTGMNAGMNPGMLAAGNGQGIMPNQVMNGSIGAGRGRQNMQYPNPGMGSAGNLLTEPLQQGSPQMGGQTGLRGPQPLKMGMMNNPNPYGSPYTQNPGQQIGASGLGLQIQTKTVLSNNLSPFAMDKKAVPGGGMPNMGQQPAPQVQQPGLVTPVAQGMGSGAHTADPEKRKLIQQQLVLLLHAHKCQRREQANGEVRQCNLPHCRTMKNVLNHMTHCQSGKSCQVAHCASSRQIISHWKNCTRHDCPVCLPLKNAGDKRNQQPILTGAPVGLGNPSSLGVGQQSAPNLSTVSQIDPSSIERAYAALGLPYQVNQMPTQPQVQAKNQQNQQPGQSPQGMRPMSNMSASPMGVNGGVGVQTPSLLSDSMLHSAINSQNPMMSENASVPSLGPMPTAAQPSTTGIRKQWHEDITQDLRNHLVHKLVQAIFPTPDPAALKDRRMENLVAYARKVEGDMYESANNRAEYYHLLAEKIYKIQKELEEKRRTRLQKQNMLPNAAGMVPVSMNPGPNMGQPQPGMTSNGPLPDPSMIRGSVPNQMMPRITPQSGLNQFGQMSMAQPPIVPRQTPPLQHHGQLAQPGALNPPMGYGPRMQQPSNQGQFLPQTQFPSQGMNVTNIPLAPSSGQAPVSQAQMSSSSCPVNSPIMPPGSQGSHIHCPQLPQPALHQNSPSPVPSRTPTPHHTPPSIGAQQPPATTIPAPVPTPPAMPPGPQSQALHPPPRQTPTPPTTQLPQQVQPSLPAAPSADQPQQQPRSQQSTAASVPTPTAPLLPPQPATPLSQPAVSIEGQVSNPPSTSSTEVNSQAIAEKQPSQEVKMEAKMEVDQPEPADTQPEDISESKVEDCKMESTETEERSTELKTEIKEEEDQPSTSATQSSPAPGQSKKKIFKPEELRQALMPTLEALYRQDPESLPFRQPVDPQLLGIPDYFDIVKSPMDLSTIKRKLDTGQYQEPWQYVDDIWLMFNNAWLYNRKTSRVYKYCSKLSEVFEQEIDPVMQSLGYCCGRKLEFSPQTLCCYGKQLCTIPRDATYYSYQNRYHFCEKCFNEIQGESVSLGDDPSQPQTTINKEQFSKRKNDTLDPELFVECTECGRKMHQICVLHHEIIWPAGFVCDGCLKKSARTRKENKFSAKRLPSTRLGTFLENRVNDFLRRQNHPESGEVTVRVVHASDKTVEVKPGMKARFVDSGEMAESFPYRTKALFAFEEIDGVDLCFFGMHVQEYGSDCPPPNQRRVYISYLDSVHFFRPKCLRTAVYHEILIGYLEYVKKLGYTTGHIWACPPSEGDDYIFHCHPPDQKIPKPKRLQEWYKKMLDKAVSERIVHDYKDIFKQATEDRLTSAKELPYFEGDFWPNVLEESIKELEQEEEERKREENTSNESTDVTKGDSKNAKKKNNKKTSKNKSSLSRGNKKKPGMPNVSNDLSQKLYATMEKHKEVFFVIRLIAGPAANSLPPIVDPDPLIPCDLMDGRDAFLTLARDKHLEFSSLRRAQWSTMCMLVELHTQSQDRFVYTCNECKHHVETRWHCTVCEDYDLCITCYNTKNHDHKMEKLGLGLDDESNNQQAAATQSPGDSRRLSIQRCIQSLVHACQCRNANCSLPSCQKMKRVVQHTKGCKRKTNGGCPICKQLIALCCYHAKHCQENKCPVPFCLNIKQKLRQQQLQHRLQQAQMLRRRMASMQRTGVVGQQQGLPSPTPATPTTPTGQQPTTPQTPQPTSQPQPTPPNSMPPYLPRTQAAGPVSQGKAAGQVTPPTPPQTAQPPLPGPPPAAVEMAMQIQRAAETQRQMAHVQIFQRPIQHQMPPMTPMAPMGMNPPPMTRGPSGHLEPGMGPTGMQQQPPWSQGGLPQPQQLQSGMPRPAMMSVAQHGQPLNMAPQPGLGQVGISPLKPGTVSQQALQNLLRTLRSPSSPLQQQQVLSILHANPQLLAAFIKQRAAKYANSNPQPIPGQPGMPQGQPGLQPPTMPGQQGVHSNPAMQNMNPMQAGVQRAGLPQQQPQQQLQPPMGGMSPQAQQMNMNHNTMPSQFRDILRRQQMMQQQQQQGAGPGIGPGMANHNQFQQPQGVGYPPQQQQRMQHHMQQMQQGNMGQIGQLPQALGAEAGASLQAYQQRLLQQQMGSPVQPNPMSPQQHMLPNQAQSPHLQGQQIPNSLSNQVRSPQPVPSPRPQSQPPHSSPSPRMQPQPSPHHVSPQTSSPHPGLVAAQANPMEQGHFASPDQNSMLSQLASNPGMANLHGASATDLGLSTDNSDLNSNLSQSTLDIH

IC50 (EP300): 24 nM
IC50 (CREBBP): 10 nM
Compound: COc1ccc(C2(C(=O)N3C[C@H](F)C[C@@H]3C(=O)Nc3ccc4[nH]ncc4n3)CCCCC2)cc1 [Example 35, (4R)-4-Fluoro-1-{[1-(4-methoxyphenyl)cyclohexyl]carbonyl}-N-1H-pyrazolo[4,3-b]pyridin-5-yl-D-prolinamide]
Tumor Growth Inhibition Rate (TE-8 cells): 51%
Tumor Growth Inhibition Rate (LK2 cells): 44%
Tumor Growth Inhibition Rate (KARPAS-422 cells): 66%
